Test results published in patent publication US5834453A, “Methods for the manufacture and use of antimicrobial sterol conjugates” (Lehigh University, priority 1997, dated 1998).
Converted amounts (≈) assume the structure as drawn. “Also recorded” adds a separate entry of the source.

Legend:
E. faecium (T6480-9) = test: MIC, micro-broth dilution; format: cell-based; conditions: Enterococcus faecium, 35° C., 24 hours, read-out: ANTIMICROBIAL ACTIVITY (MIC)
Experimental: (§1) The antimicrobial activity of the compounds according to the present invention were compared with the results obtained for squalamine as reported in Proc. Nat. Acad. Sci. USA 90:1354 (1993), supra, the disclosure of which is incorporated in toto herein. The data reported in the following table is the minimum inhibitory concentration (MIC) required for complete inhibition of microbial growth. The MIC was determined utilizing known micro-broth dilution methods in which inocula of 10^6 /ml of the test organism were incubated in 0.5× trypticase soy broth at 35° C. for 24 hours. MIC's were also tested under various pH conditions, with calcium chloride or magnesium chloride, or with immobilized horse serum.
(§2) The numbers in parentheses contained in the table correspond to accession numbers with the American Type Culture Collection (reference strains were either obtained from the American Type Culture Collection or from the Microbiology Laboratory at Memorial Sloan-Kettering Cancer Center; Bacterial strains were maintained on Columbia 5% sheep blood agar plates, and fungi were maintained on Sabouraud Dextrose agar plates).

A. fumigatus (H1120) = test: MIC, micro-broth dilution; format: cell-based; conditions: Aspergillus fumigatus, 35° C., 24 hours, read-out: ANTIMICROBIAL ACTIVITY (MIC)
Experimental: as §1, §2

K. pneumoniae (13883) = test: MIC, micro-broth dilution; format: cell-based; conditions: Klebsiella pneumoniae, 24 h, read-out: ANTIMICROBIAL ACTIVITY (MIC)
Experimental: as §1, §2

S. pyrogenes (19615) = test: MIC, micro-broth dilution; format: cell-based; conditions: 24 h, read-out: ANTIMICROBIAL ACTIVITY (MIC)
Experimental: as §1, §2

S. aureus (29213) = test: MIC, micro-broth dilution; format: cell-based; conditions: Staphylococcus aureus, 24 h, read-out: ANTIMICROBIAL ACTIVITY (MIC)
Experimental: as §1, §2

P. vulgaris (13315) = test: MIC, micro-broth dilution; format: cell-based; conditions: Proteus vulgaris, 35° C., 24 hours, read-out: ANTIMICROBIAL ACTIVITY (MIC)
Experimental: as §1, §2

S. epidermidis (12228) = test: MIC, micro-broth dilution; format: cell-based; conditions: Staphylococcus epidermidis, 35° C., 24 hours, read-out: ANTIMICROBIAL ACTIVITY (MIC)
Experimental: as §1, §2

E. cloacae (13047) = test: MIC, micro-broth dilution; format: cell-based; conditions: Enterobacter cloacae, 35° C., 24 hours, read-out: ANTIMICROBIAL ACTIVITY (MIC)
Experimental: as §1, §2

S. pneumoniae (6305) = test: MIC, micro-broth dilution; format: cell-based; conditions: Streptococcus pneumoniae, 35° C., 24 hours, read-out: ANTIMICROBIAL ACTIVITY (MIC)
Experimental: as §1, §2

E. coli (25922) = test: MIC, micro-broth dilution; format: cell-based; conditions: Escherichia coli, 35° C., 24 hours, read-out: ANTIMICROBIAL ACTIVITY (MIC)
Experimental: as §1, §2

S. agalactiae (13813) = test: MIC, micro-broth dilution; format: cell-based; conditions: Streptococcus agalactiae, 35° C., 24 hours, read-out: ANTIMICROBIAL ACTIVITY (MIC)
Experimental: as §1, §2

C. albicans (90028) = test: MIC, micro-broth dilution; format: cell-based; conditions: Candida albicans, 35° C., 24 hours, read-out: ANTIMICROBIAL ACTIVITY (MIC)
Experimental: as §1, §2

P. aeruginosa (2853) = test: MIC, micro-broth dilution; format: cell-based; conditions: Pseudomonas aeruginosa, 24 h, read-out: ANTIMICROBIAL ACTIVITY (MIC)
Experimental: as §1, §2

S. aureus (25923) = test: MIC, micro-broth dilution; format: cell-based; conditions: Staphylococcus aureus, 35° C., 24 hours, read-out: ANTIMICROBIAL ACTIVITY (MIC)
Experimental: as §1, §2

C. neoformans (M68979) = test: MIC, micro-broth dilution; format: cell-based; conditions: Cryptococcus neoformans, 24 h, read-out: ANTIMICROBIAL ACTIVITY (MIC)
Experimental: as §1, §2

E. faecalis (29212) = test: MIC, micro-broth dilution; format: cell-based; conditions: Enterococcus faecalis, 35° C., 24 hours, read-out: ANTIMICROBIAL ACTIVITY (MIC)
Experimental: as §1, §2

S. marcescens (13880) = test: MIC, micro-broth dilution; format: cell-based; conditions: for MIC: Serratia marcescens, 24 h, read-out: ANTIMICROBIAL ACTIVITY (MIC)
Experimental: as §1, §2

P. aeruginosa (10145) = test: MIC, micro-broth dilution; format: cell-based; conditions: Pseudomonas aeruginosa, 35° C., 24 hours, read-out: ANTIMICROBIAL ACTIVITY (MIC)
Experimental: as §1, §2

[1] = Hemolytic activity, minimal hemolytic concentration (MHC); format: cell-based, sheep; conditions: sheep red blood cells, 24 hours at 37° C. in saline
Experimental: (§3) Hemolytic activity of the squalamine mimics according to the present invention were also studied by incubating sheep red blood cells for 24 hours at 37° C. in saline (final concentration of 0.5%) with or without respective concentrations of the squalamine mimics. The minimal hemolytic concentration (MHC) was determined as the lowest concentration of a mimic that raised visible hemolysis.

Aspergillus fumigatus = test: MIC against clinical isolates; format: cell-based; conditions: 24 h; clinical isolates of Aspergillus fumigatus
Experimental: as §1, §2

Cryptococcus neoformans = test: MIC against clinical isolates; format: cell-based; conditions: 24 h; clinical isolates of Cryptococcus neoformans
Experimental: as §1, §2

C. neoformans (90012) = test: MIC, micro-broth dilution; format: cell-based; conditions: Cryptococcus neoformans, 24 h, read-out: ANTIMICROBIAL ACTIVITY (MIC)
Experimental: as §1, §2

A. fumigatus (H29709) = test: MIC, micro-broth dilution; format: cell-based; conditions: Aspergillus fumigatus, 35° C., 24 hours, read-out: ANTIMICROBIAL ACTIVITY (MIC)
Experimental: as §1, §2

S. aureus (H20809) = test: MIC, micro-broth dilution; format: cell-based; conditions: Staphylococcus aureus, 24 h, read-out: ANTIMICROBIAL ACTIVITY (MIC)
Experimental: as §1, §2

bacteria = test: Loss of antimicrobial/bactericidal action in presence of albumin; format: cell-based; conditions: 12.5 μg/ml of SM-7, 40 mg/ml of bovine serum albumin
sheep red blood cells = test: Hemolytic activity, minimal hemolytic concentration (MHC); format: cell-based
Experimental: as §3

gram negative rods [2] = test: Antimicrobial activity (MIC), gram negative rods; format: cell-based; conditions: of all the mimics tested
Experimental: as §1

[3] = system: various groups of microorganisms; test: Antimicrobial activity (MIC), all microorganisms tested; format: cell-based
Experimental: as §1, §2

Staphylococcus aureus = test: Bactericidal action; format: cell-based
Escherichia coli = test: Bactericidal action; format: cell-based
Pseudomonas aeruginosa = test: Bactericidal action; format: cell-based
gram negative rods [4] = test: Enhancement of the antimicrobial activity of rifampin; format: cell-based; conditions: subinhibitory concentrations of SM-7

C[C@H](C(=O)NCCCNCCCCNCCCN)[C@H]1CC[C@H]2[C@@H]3CC=C4C[C@@H](OS(=O)(=O)O)CC[C@]4(C)[C@H]3CC[C@]12C [SM-2, 23,24-bisnor-3β-ol-5-cholenic acid 3-sulfate spermine conjugate]
MIC (E. faecium (T6480-9)): > 100 µg/mL | MIC (A. fumigatus (H1120)): 12.5 µg/mL (≈ 20.5 µM) | MIC (K. pneumoniae (13883)): 12.5 µg/mL (≈ 20.5 µM) | MIC (S. pyrogenes (19615)): 6.25 µg/mL (≈ 10.2 µM) | MIC (S. aureus (29213)): > 100 µg/mL | MIC (P. vulgaris (13315)): > 100 µg/mL | MIC (S. epidermidis (12228)): 3.13 µg/mL (≈ 5.12 µM) | MIC (E. cloacae (13047)): > 100 µg/mL | MIC (S. pneumoniae (6305)): > 100 µg/mL | MIC (E. coli (25922)): 6.25 µg/mL (≈ 10.2 µM) | MIC (S. agalactiae (13813)): > 100 µg/mL | MIC (C. albicans (90028)): 12.5 µg/mL (≈ 20.5 µM) | MIC (P. aeruginosa (2853)): 3.13 µg/mL (≈ 5.12 µM) | MIC (S. aureus (25923)): 12.5 µg/mL (≈ 20.5 µM) | MIC (C. neoformans (M68979)): 3.13 µg/mL (≈ 5.12 µM) | MIC (E. faecalis (29212)): > 100 µg/mL | MIC (S. marcescens (13880)): > 100 µg/mL | MIC (P. aeruginosa (10145)): 12.5 µg/mL (≈ 20.5 µM) | minimal hemolytic concentration (MHC) at 24 h [1]: > 100 µg/mL | MIC (Aspergillus fumigatus): 12.5 µg/mL (≈ 20.5 µM) | MIC (Cryptococcus neoformans): 3.13 µg/mL (≈ 5.12 µM)

C[C@H](CCC(=O)NCCCNCCCCNCCCN)[C@H]1CC[C@H]2[C@@H]3CC[C@@H]4C[C@H](O)CC[C@]4(C)[C@H]3C[C@H](O)[C@]12C [SM-7, deoxycholic acid-spermine conjugate]
MIC (E. faecium (T6480-9)): 6.25 µg/mL (≈ 10.8 µM) | MIC (C. neoformans (90012)): 0.78 µg/mL (≈ 1.35 µM) | MIC (A. fumigatus (H1120)): 12.5 µg/mL (≈ 21.7 µM) | MIC (K. pneumoniae (13883)): 3.13 µg/mL (≈ 5.43 µM) | MIC (S. pyrogenes (19615)): 0.78 µg/mL (≈ 1.35 µM) | MIC (S. aureus (29213)): 1.56 µg/mL (≈ 2.7 µM) | MIC (P. vulgaris (13315)): 3.13 µg/mL (≈ 5.43 µM) | MIC (S. epidermidis (12228)): 0.78 µg/mL (≈ 1.35 µM) | MIC (E. cloacae (13047)): 12.5 µg/mL (≈ 21.7 µM) | MIC (S. pneumoniae (6305)): 3.13 µg/mL (≈ 5.43 µM) | MIC (E. coli (25922)): 3.13 µg/mL (≈ 5.43 µM) | MIC (A. fumigatus (H29709)): 12.5 µg/mL (≈ 21.7 µM) | MIC (S. agalactiae (13813)): 3.13 µg/mL (≈ 5.43 µM) | MIC (C. albicans (90028)): 3.13 µg/mL (≈ 5.43 µM) | MIC (P. aeruginosa (2853)): 3.13 µg/mL (≈ 5.43 µM) | MIC (S. aureus (25923)): 1.56 µg/mL (≈ 2.7 µM) | MIC (C. neoformans (M68979)): 1.56 µg/mL (≈ 2.7 µM) | MIC (S. aureus (H20809)): 1.56 µg/mL (≈ 2.7 µM) | MIC (E. faecalis (29212)): 3.13 µg/mL (≈ 5.43 µM) | MIC (S. marcescens (13880)): 25 µg/mL (≈ 43.3 µM) | activity against S. marcescens (S. marcescens (13880); in words): found even against S. marcescens; also recorded: effective against S. marcescens | MIC (P. aeruginosa (10145)): 6.25 µg/mL (≈ 10.8 µM) | inhibition of (bactericidal) activity by albumin (bacteria): completely inhibited | hemolytic activity (in words) (sheep red blood cells): unwanted hemolytic activity | minimal hemolytic concentration (MHC) at 24 h [1]: 12.5 µg/mL | potency ranking against gram negative rods (gram negative rods [2]): most potent activity against gram negative rods of all the mimics tested | antimicrobial activity (in words) [3]: highly active; also recorded: more activity than SM-8, SM-14, and SM-22 | antibacterial action (bactericidal) (Staphylococcus aureus): bactericidal | antibacterial action (bactericidal) (Escherichia coli): bactericidal | antibacterial action (bactericidal) (Pseudomonas aeruginosa): bactericidal | enhancement of antimicrobial activity of rifampin (gram negative rods [4]): markedly enhanced the antimicrobial activity of rifampin against gram negative rods
